In US12331022B2, “Spiropiperidine allosteric modulators of nicotinic acetylcholine receptors” (Merck Sharp & Dohme LLC, priority 2019, dated 2025):
Where two headings read alike, the source gives them in different places.

Target: T1, human α7 nAChR (Homo sapiens, UniProt P36544)
T1 construct: host or cells: HEK
Assay: Automated patch-clamp electrophysiology functional assay (Assay A)
Assay type: cell-based
Conditions: HEK cell line stably expressing human RIC-3 and human α7, IonFlux HT whole-cell population patch, with or without 40 μM acetylcholine
Description: The α7 nAChR positive allosteric modulator (PAM) activity of the present compounds may be tested using assays known in the art. The α7 nAChR PAMs described herein have activities in an automated patch-clamp electrophysiology functional assay as described in the examples. The assay was performed using the IonFlux HT in a whole-cell, population patch configuration. See Golden et al. Assay Drug Dev. Technol. (2011) 9:608-619. The compounds were assessed for their ability to modulate the function of the human α7 nAChR stably expressed in a HEK cell line both in the presence, and in the absence of the natural α7 agonist acetylcholine. By performing a series of such measurements at different concentrations, the effective concentration of the α7 nAChR PAMs (EC50) was determined. See Spencer et al. Assay Drug Dev. Technol. (2012) 10:313-324.
Direct activation of α7 (agonism), and potentiation of acetylcholine-evoked α7 currents was determined as follows:
Automated patch-clamp electrophysiology was performed using the IonFlux HT (Fluxion Biosciences Inc., San Francisco, CA) in the whole-cell, population patch configuration. Test compounds were assessed for their ability to modulate the function of the α7 nicotinic acetylcholine receptor both in the presence, and in the absence of the natural α7 agonist acetylcholine. A HEK cell line stably expressing both human RIC-3 and human α7 (PrecisION hnAChR α7/RIC-3, Eurofins Pharma, St. Charles, MO) was cultured in 175 cm^2 triple-layer tissue culture flasks to no more than 90% confluency in DMEM/F-12 growth media supplemented with 10% heat-inactivated fetal bovine serum, 1% non-essential amino acids, 0.625 μg/mL Puromycin, and 400 μg/mL Geneticin. Immediately prior to assay, cells were detached by first aspirating growth media, rinsing with Dulbecco's phosphate buffered saline, and then adding 10 mL of Accutase (Innovative Cell Technologies, San Diego, CA) to the flask and then incubating at 37° C. for 5 minutes. Detached cells were then recovered by the addition of 40 mL of CHO-serum-free media supplemented with 25 mM HEPES, and rocked gently in a 50 mL conical tube for 20 minutes prior to patch-clamp assay. After recovery, cells were pelleted by centrifugation at 1,000 RPM for 1 minute in a compact bench top centrifuge; recovery media was aspirated and cells were resuspended in external recording solution (150 mM NaCl, 5 mM KCl, 2 mM CaCl2, 1 mM MgCl2, 10 mM HEPES, 12 mM dextrose) to a density of 5.0×10^6 cells/mL. The cell suspension was added to the cell inlet wells on an IonFlux HT population patch plate which had previously been rinsed and primed with deionized H2O. Test compounds were serially diluted in DMSO and then resuspended to the final test concentration in external recording solution, with, or without 40 μM acetylcholine added to the external recording solution; test compounds were then transferred to the IonFlux HT population patch plate. Internal recording solution (110 mM TrisPO4, 28 mM TrisBase, 0.1 mM CaCl2, 2 mM MgCl2, 11 mM EGTA, 4 mM MgATP) was added to the internal recording solution inlet wells on the IonFlux HT patch plate previously loaded with cells and test compounds, and the plate loaded into the IonFlux HT instrument. A protocol was executed on the IonFlux HT to trap the cells, break into the cells, and establish the whole-cell recording configuration; cells were voltage-clamped at a holding potential of −60 mV for the duration of the experiment, all experiments were conducted at room temperature, and the IonFlux HT injection pressure was 8 psi for solution applications. Upon establishing the whole-cell configuration, external recording solution was perfused into the recording chambers for 120 seconds and then 40 μM acetylcholine was applied for 1 second and immediately washed off with external recording solution for 60 seconds. […]

T1 sequence (P36544 23-502): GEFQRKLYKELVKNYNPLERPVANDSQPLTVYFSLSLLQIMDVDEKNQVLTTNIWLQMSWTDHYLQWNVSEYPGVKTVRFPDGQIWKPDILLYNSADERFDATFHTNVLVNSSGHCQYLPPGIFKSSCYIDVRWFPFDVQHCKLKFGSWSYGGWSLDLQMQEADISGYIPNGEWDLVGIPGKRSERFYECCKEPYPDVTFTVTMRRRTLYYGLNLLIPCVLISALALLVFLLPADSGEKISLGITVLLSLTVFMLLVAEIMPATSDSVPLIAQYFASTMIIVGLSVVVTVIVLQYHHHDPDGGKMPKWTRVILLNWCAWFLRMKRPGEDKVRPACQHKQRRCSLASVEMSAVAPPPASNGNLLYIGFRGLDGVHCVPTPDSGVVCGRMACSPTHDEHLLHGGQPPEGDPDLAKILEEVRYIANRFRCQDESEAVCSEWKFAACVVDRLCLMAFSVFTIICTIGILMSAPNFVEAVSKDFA

| EC50 (read-out: α7 nAChR EC50) | EC50 (read-out: α7 nAChR Potency) | SMILES |
| --- | --- | --- |
| 22 nM | ≤ 100 nM | COc1ccc(Cl)cc1NC[C@@H]1C(F)(F)C12CCN(S(N)(=O)=O)CC2 [Example A59, (2R)-2-{[(5-chloro-2-methoxyphenyl)amino]methyl}-1,1-difluoro-6-azaspiro[2.5]octane-6-sulfonamide] |
| 150 nM | 100 to 500 nM | NS(=O)(=O)N1CCC2(CC1)CC2COc1cccc(OC(F)F)c1 (racemic) [Example A23, 1-{[3-(difluoromethoxy)phenoxy]methyl}-6-azaspiro[2.5]octane-6-sulfonamide] |
| 1600 nM | 500 to 5000 nM | COc1ccc(Cl)cc1S(=O)(=O)C[C@@H]1CC12CCN(S(N)(=O)=O)CC2 [Example 12, (1R)-1-{[(5-Chloro-2-methoxyphenyl)sulfonyl]methyl}-6-azaspiro[2.5]octane-6-sulfonamide] |
| 6200 nM | 5000 to 50000 nM | COc1ccc(OC[C@@H]2CC23CCN(S(N)(=O)=O)CC3)c(OC)n1 [Example A1, (1R)-1-{[(2,6-dimethoxypyridin-3-yl)oxy]methyl}-6-azaspiro[2.5]octane-6-sulfonamide] |
| 49 nM | ≤ 100 nM | NS(=O)(=O)N1CCC2(CC1)C(COc1noc(-c3ccccc3)n1)C2(F)F (single isomer, unassigned) [Example 6, 1,1-Difluoro-2-{[(5-phenyl-1,2,4-oxadiazol-3-yl)oxy]methyl}-6-azaspiro[2.5]octane-6-sulfonamide] |
| 650 nM | 500 to 5000 nM | NS(=O)(=O)N1CCC2(CC1)CC2COc1ccccc1OC(F)F (single isomer, unassigned) [Example A9, 1-{[2-(difluoromethoxy)phenoxy]methyl}-6-azaspiro[2.5]octane-6-sulfonamide] |
| 330 nM | 100 to 500 nM | NS(=O)(=O)N1CCC2(CC1)CC2COc1cccc(OCC(F)(F)F)c1 (stereo not drawn) [Example 7, 1-{[3-(2,2,2-Trifuoroethoxy)phenoxy]methyl}-6-azaspiro[2.5]octane-6-sulfonamide] |
| 700 nM | 500 to 5000 nM | Cc1cc(OCC2CC23CCN(S(N)(=O)=O)CC3)n(-c2ccccc2)n1 (racemic) [Example A14, 1-{[(3-methyl-1-phenyl-1H-pyrazol-5-yl)oxy]methyl}-6-azaspiro[2.5]octane-6-sulfonamide] |
| 11 nM | ≤ 100 nM | Cc1ccc(C)c(NC[C@@H]2C(F)(F)C23CCN(S(N)(=O)=O)CC3)c1 [Example A60, (2R)-2-{[(2,5-dimethylphenyl)amino]methyl}-1,1-difluoro-6-azaspiro[2.5]octane-6-sulfonamide] |
| 940 nM | 500 to 5000 nM | COc1cc(F)ccc1OC[C@@H]1CC12CCN(S(N)(=O)=O)CC2 [Example A6, (1R)-1-[(4-fluoro-2-methoxyphenoxy)methyl]-6-azaspiro[2.5]octane-6-sulfonamide] |
| 180 nM | 100 to 500 nM | NS(=O)(=O)N1CCC2(CC1)C[C@H]2COc1cccc(OC(F)(F)F)c1 [Example A24, (1R)-1-{[3-(trifluoromethoxy)phenoxy]methyl}-6-azaspiro[2.5]octane-6-sulfonamide] |
| 6200 nM | 5000 to 50000 nM | COc1cc(OC[C@H]2CC23CCN(S(N)(=O)=O)CC3)ccc1F [Example A5, (1S)-1-[(4-fluoro-3-methoxyphenoxy)methyl]-6-azaspiro[2.5]octane-6-sulfonamide] |
| 1400 nM | 500 to 5000 nM | COc1ccc(Cl)cc1NC(=O)[C@H]1C(F)(F)C12CCN(S(N)(=O)=O)CC2 [Example B3, (1S)—N-(5-chloro-2-methoxyphenyl)-2,2-difluoro-6-sulfamoyl-6-azaspiro[2.5]octane-1-carboxamide] |
| 720 nM | 500 to 5000 nM | NS(=O)(=O)N1CCC2(CC1)C(CSc1ccc(F)cc1C(F)(F)F)C2(F)F (stereo not drawn) [Example 17, 1,1-Difluoro-2-({[4-fluoro-2-(trifluoromethyl)phenyl]sulfanyl}methyl)-6-azaspiro[2.5]octane-6-sulfonamide] |
| 1700 nM | 500 to 5000 nM | Cc1cccc(OC[C@@H]2CC23CCN(S(N)(=O)=O)CC3)n1 [Example A48, (1R)-1-{[(6-methylpyridin-2-yl)oxy]methyl}-6-azaspiro[2.5]octane-6-sulfonamide] |
| 1200 nM | 500 to 5000 nM | NS(=O)(=O)N1CCC2(CC1)C[C@H]2COCc1cccc(OCC(F)(F)F)n1 [Example 9, (1R)-1-({[6-(2,2,2-Trifluoroethoxy)pyridin-2-yl]methoxy}methyl)-6-azaspiro[2.5]octane-6-sulfonamide] |
| 48 nM | ≤ 100 nM | COc1ccc(Cl)cc1NC[C@@H]1CC12CCN(S(N)(=O)=O)CC2 [Example 14, (1R)-1-{[(5-Chloro-2-methoxyphenyl)amino]methyl}-6-azaspiro[2.5]octane-6-sulfonamide] |
| 71 nM | ≤ 100 nM | NS(=O)(=O)N1CCC2(CC1)C(COc1ccnc(OC(F)F)c1)C2(F)F (single isomer, unassigned) [Example 2, 2-({[2-(Difluoromethoxy)pyridin-4-yl]oxy}methyl)-1,1-difluoro-6-azaspiro[2.5]octane-6-sulfonamide] |
| 37 nM | ≤ 100 nM | NS(=O)(=O)N1CCC2(CC1)C(COc1cccc(OC(F)F)c1)C2(F)F (single isomer, unassigned) [Example A28, 2-{[3-(difluoromethoxy)phenoxy]methyl}-1,1-difluoro-6-azaspiro[2.5]octane-6-sulfonamide] |
| 450 nM | 100 to 500 nM | CCOc1cccc(OC[C@@H]2CC23CCN(S(N)(=O)=O)CC3)n1 [Example A54, (1R)-1-{[(6-ethoxypyridin-2-yl)oxy]methyl}-6-azaspiro[2.5]octane-6-sulfonamide] |
| 480 nM | 100 to 500 nM | CC(C)(O)c1cccc(OC[C@@H]2CC23CCN(S(N)(=O)=O)CC3)n1 [Example A52, (1R)-1-({[6-(2-hydroxypropan-2-yl)pyridin-2-yl]oxy}methyl)-6-azaspiro[2.5]octane-6-sulfonamide] |
| 90 nM | ≤ 100 nM | Cn1nc(C(F)(F)F)cc1OCC1C(F)(F)C12CCN(S(N)(=O)=O)CC2 (single isomer, unassigned) [Example A11, 1,1-difluoro-2-({[1-methyl-3-(trifluoromethyl)-1H-pyrazol-5-yl]oxy}methyl)-6-azaspiro[2.5]octane-6-sulfonamide] |
| 3100 nM | 500 to 5000 nM | NS(=O)(=O)N1CCC2(CC2COc2noc(-c3ccccc3)n2)C(F)(F)C1 (racemic) [Example A22, 4,4-difluoro-1-{[(5-phenyl-1,2,4-oxadiazol-3-yl)oxy]methyl}-6-azaspiro[2.5]octane-6-sulfonamide] |
| 280 nM | 100 to 500 nM | NS(=O)(=O)N1CCC2(CC1)C[C@H]2COc1cccc(C2CC2)n1 [Example A49] |
| 740 nM | 500 to 5000 nM | CC(F)(F)c1cccc(OC[C@@H]2CC23CCN(S(N)(=O)=O)CC3)n1 [Example A56, (1R)-1-({[6-(1,1-difluoroethyl)pyridin-2-yl]oxy}methyl)-6-azaspiro[2.5]octane-6-sulfonamide] |
| 200 nM | 100 to 500 nM | COc1ccc(Cl)cc1NC(=O)[C@@H]1CC12CCN(S(N)(=O)=O)CC2 [Example 13, (1R)—N-(5-Chloro-2-methoxyphenyl)-6-sulfamoyl-6-azaspiro[2.5]octane-1-carboxamide] |
| 1400 nM | 500 to 5000 nM | NS(=O)(=O)N1CCC2(CC1)CC2CSc1ccc(C(F)(F)F)cc1 (racemic) [Example A43, 1-({[4-(trifluoromethyl)phenyl]sulfanyl}methyl)-6-azaspiro[2.5]octane-6-sulfonamide] |
